According to patent US12171744B2, “Pharmaceutical combinations for the treatment of cancer” (Presage Biosciences, Inc., priority 2016, dated 2024):
Entries after “also recorded” stand apart in the source; their conditions may differ.

Assays:
MAK = MAK (Homo sapiens, UniProt P20794); experiment: Kinase inhibition profile
NudHL1 DLBCL xenografts = experiment: CIVO microinjection, CC3 staining after 6 hours; type: in vivo, mice; conditions: treated for 6 hours
Description: Mice were enrolled into CIVO drug studies when the tumor volume reached approximately 1000 mm^3. Microinjection studies were performed using the CIVO device as previously described (Klinghoffer et al, Science Translational Medicine 2015) The device was configured with 6 injection needles set for a 6 mm injection length and a total volume delivery of 3 μl. A fluorescent tracking marker (FTM) was added to each drug reservoir in vehicle for delivery along with each drug or drug combination. […] Total amounts of agents injected are tabulated below in Table 4.
FIGS. 9A-9D depict cells that were treated as above and stained for cleaved caspase-3 (CC3) as a marker of apoptosis (shown in red).
FIGS. 10A-10D depict cells that were treated as above and stained for cleaved caspase-3 (CC3) as a marker of apoptosis (shown in red).

[1] = test system: HCC1187 triple negative breast cancer cells; experiment: Western blot of treated cells; type: cell-based
Description: (§1) Cell lines shown in Table 1, adherent or suspension, were treated in 6-well dishes or T10 flasks respectively, seeded at one million per ml density prior to treatment in total volumes of 3-10 ml. All agents used for in vitro cell treatments were formulated in water/DMSO to achieve required concentrations (as stated in respective figure labels/legends) with DMSO concentrations not exceeding 0.01%. Drug sources are indicated in table under ‘CIVO microinjection studies’. Cells were harvested at experimental time points: 2, 6, or 24 hours post treatment as indicated in respective figures, first by washing cells twice in ice-cold PBS in 15 ml falcon tubes, centrifugation at 1000 rpm for 5 mins followed by lysis of the respective cell pellets as described in section below. Note: Drug resistant NUDHL1 Dox 1000 nM and Toledo Dox 1000 nM cell lines were generated at Presage by culturing parental lines in media with stepwise increments in Doxorubicin concentration over several passages. These cells were used to generate xenografts when resistance to 1 uM Dox was achieved.
Protein lysates were prepared by adding ice-cold 1×RIPA Buffer (from 10×, Millipore) with 1×-3× Halt protease and phosphatase inhibitor cocktail (100×, Pierce) to cell pellets, followed by pulse sonication (˜3-5 secs) three times. Lysates were cleared by centrifugation at 14K rpm for 15-20 mins and the supernatant (lysate) was collected for further analysis. To prepare lysates from cryopreserved xenograft tumor tissue, tissue was first homogenized using a hand-held tissue homogenizer (Cole Palmer) in above lysis buffer followed by pulse sonication and centrifugation as described above. Above steps were carried out under ice cold conditions. […] 20-25 micrograms of protein from each sample were subject to SDS-PAGE using BOLT 4-12% Bis-Tris gels (Thermofisher) and transferred to either 0.45 or 0.2 micron pore size membranes (as applicable based on protein molecular size), and either nitrocellulose (NC) or pvdf (Thermofisher) using manufacturer's protocol, blocked for one hour in 5% milk at room temperature, probed with primary antibodies (Table 2) at 4 deg C. overnight and corresponding HRP-conjugated secondary antibodies (Jackson Immunoresearch, 1:10,000-1:20,000 dilutions) for 1 hour at room temperature. Three PBS/0.01% Tween-20 washes (5-10 mins each) were carried out after each antibody incubation. ECL chemiluminescent substrate (Pierce or GE) and autoradiographic film (Thermofisher) was used for detection of protein signals.
1 ug of mRNA from each condition was used to generate cDNA using the High Capacity cDNA Reverse Transcription Kit (Applied Biosystems) and manufacturer's protocol. 100 ng cDNA was used to conduct a PCR assay to amplify XBP1 u or splice forms (Thermofisher PCR Supermix)—94 deg C. for 2 mins, (94 deg C. for 15 secs, 55 deg C. for 30 secs, 72 deg C. for 1 min)×30 cycles, 72 deg C. for 7 mins, hold at 4 deg C.

[2] = test system: DLBCL xenograft tumors (OCILY10); experiment: MCL1 expression in xenograft tumors after oral dosing; type: in vivo, mice; conditions: 100 mpk, oral gavage daily for 5 days, 4 h post final dose
Description: Protein lysates were prepared by adding ice-cold 1×RIPA Buffer (from 10×, Millipore) with 1×-3× Halt protease and phosphatase inhibitor cocktail (100×, Pierce) to cell pellets, followed by pulse sonication (˜3-5 secs) three times. Lysates were cleared by centrifugation at 14K rpm for 15-20 mins and the supernatant (lysate) was collected for further analysis. To prepare lysates from cryopreserved xenograft tumor tissue, tissue was first homogenized using a hand-held tissue homogenizer (Cole Palmer) in above lysis buffer followed by pulse sonication and centrifugation as described above. Above steps were carried out under ice cold conditions. Protein samples were quantified using Bradford assay (Biorad) at 1:10 or higher dilutions using appropriate blank controls with 1×RIPA. 20-25 micrograms of protein from each sample were subject to SDS-PAGE using BOLT 4-12% Bis-Tris gels (Thermofisher) and transferred to either 0.45 or 0.2 micron pore size membranes (as applicable based on protein molecular size), and either nitrocellulose (NC) or pvdf (Thermofisher) using manufacturer's protocol, blocked for one hour in 5% milk at room temperature, probed with primary antibodies (Table 2) at 4 deg C. overnight and corresponding HRP-conjugated secondary antibodies (Jackson Immunoresearch, 1:10,000-1:20,000 dilutions) for 1 hour at room temperature. […]

OCI Ly10 model of DLBCL = experiment: Western blot of treated cells; type: cell-based; conditions: 5 uM voruciclib, 50 nM venetoclax; 24 h
Description: as §1, with “These cells were used to generate xenografts when resistance to 1 uM Dox was achieved.” left out
Protein lysates were prepared by adding ice-cold 1×RIPA Buffer (from 10×, Millipore) with 1×-3× Halt protease and phosphatase inhibitor cocktail (100×, Pierce) to cell pellets, followed by pulse sonication (˜3-5 secs) three times. […] Protein samples were quantified using Bradford assay (Biorad) at 1:10 or higher dilutions using appropriate blank controls with 1×RIPA. […]

ICK = ICK (Homo sapiens, UniProt Q9UPZ9); experiment: Kinase inhibition profile; type: biochemical
ICK, sequence (Q9UPZ9 whole entry): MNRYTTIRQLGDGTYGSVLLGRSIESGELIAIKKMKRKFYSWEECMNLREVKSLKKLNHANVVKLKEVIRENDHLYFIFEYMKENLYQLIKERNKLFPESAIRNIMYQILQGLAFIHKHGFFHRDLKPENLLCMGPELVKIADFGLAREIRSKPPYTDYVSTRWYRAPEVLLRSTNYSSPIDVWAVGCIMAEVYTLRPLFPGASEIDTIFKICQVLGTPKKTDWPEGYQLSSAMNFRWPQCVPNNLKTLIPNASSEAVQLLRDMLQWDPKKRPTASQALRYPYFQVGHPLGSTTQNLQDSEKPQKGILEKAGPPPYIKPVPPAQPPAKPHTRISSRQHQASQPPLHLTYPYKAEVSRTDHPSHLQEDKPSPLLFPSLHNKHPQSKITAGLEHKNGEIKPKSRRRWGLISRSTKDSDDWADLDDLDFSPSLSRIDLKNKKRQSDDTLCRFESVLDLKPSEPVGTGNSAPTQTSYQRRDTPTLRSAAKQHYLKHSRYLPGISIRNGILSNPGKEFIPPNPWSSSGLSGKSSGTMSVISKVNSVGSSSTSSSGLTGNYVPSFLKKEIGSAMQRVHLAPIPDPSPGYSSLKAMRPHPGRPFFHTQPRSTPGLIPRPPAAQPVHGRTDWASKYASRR

[3] = Western blot, voruciclib and bortezomib in combination

MAK, sequence (P20794 whole entry): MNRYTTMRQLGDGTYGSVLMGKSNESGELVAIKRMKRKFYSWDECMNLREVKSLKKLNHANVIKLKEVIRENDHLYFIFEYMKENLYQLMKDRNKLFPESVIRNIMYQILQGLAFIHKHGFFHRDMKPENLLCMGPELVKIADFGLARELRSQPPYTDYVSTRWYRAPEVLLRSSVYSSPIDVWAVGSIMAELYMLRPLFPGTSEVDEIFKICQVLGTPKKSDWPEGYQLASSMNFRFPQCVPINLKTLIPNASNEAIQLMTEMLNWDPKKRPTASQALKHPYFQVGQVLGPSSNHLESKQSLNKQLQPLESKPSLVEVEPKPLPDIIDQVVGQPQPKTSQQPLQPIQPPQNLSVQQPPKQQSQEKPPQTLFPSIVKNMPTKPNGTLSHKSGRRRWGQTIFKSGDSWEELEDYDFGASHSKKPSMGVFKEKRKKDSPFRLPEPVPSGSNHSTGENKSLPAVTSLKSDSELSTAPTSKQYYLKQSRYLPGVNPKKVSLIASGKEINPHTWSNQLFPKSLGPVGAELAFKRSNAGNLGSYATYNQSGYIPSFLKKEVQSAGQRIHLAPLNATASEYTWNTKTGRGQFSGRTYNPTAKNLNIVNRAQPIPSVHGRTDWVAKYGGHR

inhibition of MAK (MAK): does not show potent inhibition
inhibition of ICK (ICK): does not show potent inhibition
Structure (SMILES): CN1CC[C@@H](c2c(O)cc(O)c3c(=O)cc(-c4ccc(C(F)(F)F)cc4Cl)oc23)[C@@H]1CO (relative stereo) [voruciclib, (+)-trans-2-(2-Chloro-4-trifluoromethylphenyl)-5,7-dihydroxy-8-(2-hydroxymethyl-1-methylpyrrolidin-3-yl)-chromen-4-one]
CC3 expression (NudHL1 DLBCL xenografts): little to no increase
MCL-1 protein expression ([1]; Western blot, compared to untreated sample): reduced
bortezomib-induced increase in MCL-1 expression [1, 3]: decreased; also recorded: diminishes
bortezomib-induced upregulation of XIAP [1, 3]: diminishes
XBP1 upregulation ([1]; voruciclib combined with either bortezomib or tunicamycin): diminished
MCL1 expression in xenograft tumors [2]: suppressed
apoptosis (cleaved PARP) (OCI Ly10 model of DLBCL): neither compound significantly induces apoptosis as a single agent
